Columns and labels:
Type in all cases: cell-based, human
[1] = system: SK-N-BE(2)-CXCR4 cells; experiment: Cell survival assay (PI staining, FACS); conditions: SK-N-BE(2)-CXCR4 compared to native cell line; 0-10 μM, 24 hours
Protocol: A total of 1×10^5 cells/mL were cultured in 24-well plates with […] RPMI 1640 medium supplemented with 10% FCS. 24 hours later, the medium was changed to RPMI 1640 supplemented with either 1% FCS, with BL-8040 or AMD3100 or ABT199. Then 24 hours later, the cells were harvested, washed, and stained with PI (Sigma). The number of live cells was counted and analyzed using FACS analysis.
In order to stably overexpress CXCR4, SK-N-BE(2) cells were transduced with the lentiviral bicistronic vector harboring a CXCR4 expression cassette. This was done using a three-plasmid system: pHR′-CMVCXCR4-IRES-GFP-WPRE; envelope coding plasmid VSV-G and a packaging construct CMVDR8.91 according to previously published protocol (23). For transduction of SK-N-BE(2) cells, 1 ml of viral supernatant was used, which is equivalent to an m.o.i. of ˜9.

[2] = system: Shy-SY5Y cells; experiment: Cell proliferation assay with CXCL12; conditions: CXCL12 500 ng/ml
Protocol: (§1) Cells were seeded at 2×10^4 cells/1 ml per well into a 24-well plate in medium supplemented with 0.1% FCS with or without various concentrations of CXCL12 (PeproTech EC). On days 2, 4 and 7, cells were harvested, stained with propidium iodide (PI, Sigma), and the number of viable cells was determined using FACS analysis.

[3] = system: SK-N-BE(2) cells; experiment: Cell proliferation assay with CXCL12
Protocol: as §1

[4] = system: SK-N-BE(2) cells; experiment: Soft agar colony assay; conditions: CXCL12 100 ng/ml, 14 days
Protocol: An agar base layer was prepared as follows: 45 mL RPMI plus 12% FCS was mixed with 15 mL RPMI 32 plus 12% FCS and 15 mL 2.5% agar in double-distilled water. The tumor cells were suspended in RPMI plus 10% FCS. Cell suspension was mixed in a ratio of 1:3 with the agar base solution. This mixture was then plated on top of a preformed solid agar base. CXCL12 (100 ng/mL) or BL-8040 (20 μM) or anti-CXCR4 (1 μg/ml) were added to the mixture. Fourteen days later, the number of colonies was counted in 10 different fields.

[5] = system: BCL-2 and CCND1 in SK-N-BE(2) cells; experiment: qPCR of target genes after miR transfection
Protocol: cDNA was synthesized from 0.5-1 μg total RNA using the Quanta Biosciences qScript™ cDNA Synthesis Kit (95047-100) for mRNA analysis, and using the qScript™ microRNA cDNA Synthesis Kit (95107-100) for miRNAs analysis. Quantiative PCR (qPCR) of miRNAs and mRNA was performed using the CFX384, C1000 touch thermal cycler (Bio-Rad) and a SYBR Green PCR Kit: Quanta Cat. #84018 and #84071, respectively. The fold expression and statistical significance were calculated using the 2-ΔΔ Ct method. All experiments were performed in triplicate.
Transfections were performed using Lipofectamine 2000 transfection reagent (Invitrogen) according to the manufacturer's protocol. Plasmids were purchased from Dharmacon. MiR-15a: miRIDIAN microRNA hsa-miR-15a-5p mimic. MiR-16-1: miRIDIAN microRNA hsa-miR-16-5p mimic. Negative control miR: miRIDIAN microRNA inhibitor negative control. AntagomiR-15a: miRIDIAN microRNA hsa-miR-15a-5p hairpin inhibitor. AntagomiR-16-1: miRIDIAN microRNA hsa-miR-16-5p hairpin inhibitor. AntagomiR negative control: miRIDIAN microRNA hairpin inhibitor negative control 1. All miRNA-mimics and antagomiRs were transfected at 50 nM or 100 nM. To determine the efficiency of transfection, at 48 hours post-transfection, the cells were analyzed for RNA.

Compound: CC1(C)CCC(CN2CCN(c3ccc(C(=O)NS(=O)(=O)c4ccc(NCC5CCOCC5)c([N+](=O)[O-])c4)c(Oc4cnc5[nH]ccc5c4)c3)CC2)=C(c2ccc(Cl)cc2)C1 [ABT-199, reference compound]
- resistance to the BCL-2 inhibitor (viability) [1]: high resistance

Compound: CXCL12: the ligand of CXCR4 (PeproTech EC)
- proliferation with CXCL12 [2]: increased proliferation
- proliferation with CXCL12 [3]: no response
- colony formation with CXCL12 [4]: high colony formation ability

Compound: miR-16-1: miRIDIAN microRNA hsa-miR-16-5p mimic (guide TAGCAGCACGTAAATATTGGCG; mimic duplex; passenger strand missing)
- level of both target genes (BCL-2 and CCND1) after transfection [5]: reduction

— patent US20200282009A1, “METHODS OF TREATING DISEASES ASSOCIATED WITH VASCULAR SMOOTH MUSCLE CELL PROLIFERATION” (BioLineRx Ltd., priority 2017, published 2020)
